# According to PMC4364556, “Comparative Distribution and In Vitro Activities of the Urotensin II-Related Peptides URP1 and URP2 in Zebrafish: Evidence for Their Colocalization in Spinal Cerebrospinal Fluid-Contacting Neurons” (PLoS ONE, 2015):
# Where a SMILES comes first, the peptide text is derived from it. Bridges are numbered along the chain shown (N, C = ends).
# Molecular target: T1, human UII receptor (hUT) (Homo sapiens, UniProt Q9UKP6)
# T1 construct: expressed in transfected cells
# T1 sequence (Q9UKP6 1-389): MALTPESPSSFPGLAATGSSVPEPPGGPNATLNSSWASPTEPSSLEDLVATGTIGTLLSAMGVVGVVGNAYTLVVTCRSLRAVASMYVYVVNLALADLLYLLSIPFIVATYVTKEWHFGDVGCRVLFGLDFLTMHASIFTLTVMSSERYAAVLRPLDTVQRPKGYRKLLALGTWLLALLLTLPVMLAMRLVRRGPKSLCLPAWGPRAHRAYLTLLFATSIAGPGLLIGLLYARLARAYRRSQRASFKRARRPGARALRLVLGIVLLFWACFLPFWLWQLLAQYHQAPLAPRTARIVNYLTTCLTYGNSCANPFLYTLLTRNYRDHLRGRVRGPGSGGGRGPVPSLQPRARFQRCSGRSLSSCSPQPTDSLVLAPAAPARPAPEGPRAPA
# Test: Intracellular calcium mobilization assay (hUT-CHO cells)
# Type: cell-based
# Details: for EC50: agonist, CHO cells stably transfected with human UT, Fluo-4 AM, 37°C, fluorescence 485/525 nm, 180 sec, peptides 10^-12 to 10^-6 M, peak fluorescence, four-parameter logistic, mean ± SEM of 7–13 independent experiments, read-out: pEC50, intracellular calcium mobilization (converted); for comparison of potency of URP1 and URP2 to activate the hUT: URP1 vs URP2; for times less potent than hUII to mobilize intracellular calcium: compared with hUII pEC50 = […]; for efficacy, increase in intracellular calcium: percentages of the baseline (baseline normalized to 100%), Fluo-4 AM peak fluorescence, similar to efficacies evoked by hUII and mURP, approximate ('around')
# Description: CHO cells stably transfected with the human UII receptor (hUT-CHO) (Chatenet et al. 2004) were plated at a density of 4 x 10^4 cells/well in flat clear bottom black 96-well plates. Measures of intracellular calcium mobilization were performed as previously described (Dubessy et al. 2008) with slight modifications. Briefly, after 24 h in culture, cells were incubated for 1 h in a humidified incubator (37°C, 5% CO2) with 2 μM Fluo-4 acetoxymethyl ester (AM) calcium dye (Life Technologies) in Hank’s Buffer Saline Solution (HBSS; Life Technologies) buffered with 5 mM HEPES and supplemented with 2.5 mM probenecid (Sigma-Aldrich, Saint-Quentin Fallavier, France). Cells were washed twice with HBSS/HEPES/probenecid to remove Fluo-4 AM from the incubation medium and incubated in 150 μl of the same medium at 37°C for 15 min. Fluorescence was recorded using a Flexstation 3 fluorescence plate reader system (Molecular Devices, Saint-Grégoire, France) during 180 sec with an excitation wavelength of 485 nm, an emission wavelength of 525 nm and a cutoff filter of 515 nm. After 18 sec recording in basal conditions, 50 μl of graded concentration (10^-12 to 10^-6 M) of different peptides (4-fold final concentration) was added to the incubation medium with the built-in 8 channel pipettor at a rate of 47 μl/sec to assess their agonistic activity. After subtraction of mean fluorescence background from control wells without Fluo-4 AM, baseline was normalized to 100% and fluorescence peak values were determined for each concentration of peptide. Potency (EC50) and efficacy (Emax) were calculated with the Prism 5.0 software (GraphPad Software In., La Jolla, CA, USA) using a four-parameter logistic equation to fit peak fluorescence data.
# For intracellular calcium mobilization assays, results from 7–13 independent experiments were expressed as mean ± SEM of Log(EC50) and plotted with box and whiskers. The normality of each data set was verified with the Shapiro-Wilk’s test and a one-way ANOVA test followed by a Tukey’s multiple comparison test to compare Log(EC50) between each peptide. Differences were considered significant where P<0.05.
# [1] = hUT-CHO cells, one-way ANOVA followed by Tukey's test on Log(EC50)
SMILES,EC50 [µM],"potency compared with the other tested peptides (hUT-CHO cells, vs hUII, URP1 and URP2, one-way ANOVA followed by Tukey's test on Log(EC50), P<0.05)",comparison of potency of URP1 and URP2 to activate the hUT [1],times less potent than hUII to mobilize intracellular calcium (hUT-CHO cells) [times],"efficacy, increase in intracellular calcium (hUT-CHO cells)"
"CC(C)[C@H](NC(=O)[C@@H]1CSSC[C@H](NC(=O)[C@H](C)N)C(=O)N[C@@H](Cc2ccccc2)C(=O)N[C@@H](Cc2c[nH]c3ccccc23)C(=O)N[C@@H](CCCCN)C(=O)N[C@@H](Cc2ccc(O)cc2)C(=O)N1)C(=O)O [mURP, reference compound]",0.00245,intermediate potency,,,
CC(C)[C@H](NC(=O)[C@@H]1CSSC[C@H](NC(=O)[C@H](C)N)C(=O)N[C@@H](Cc2ccccc2)C(=O)N[C@@H](Cc2c[nH]c3ccccc23)C(=O)N[C@@H](CCCCN)C(=O)N[C@@H](Cc2ccc(O)cc2)C(=O)N1)C(=O)N[C@H](C(=O)N[C@@H](CC(N)=O)C(=O)O)[C@@H](C)O [URP1] (H-ACFWKYCVTN-OH; disulfide 2-7),0.0102,,equipotent to activate the hUT,28,200–250%
CC(C)[C@H](N)C(=O)N[C@H]1CSSC[C@@H](C(=O)N[C@@H](CO)C(=O)N[C@@H](CCC(N)=O)C(=O)N[C@@H](CC(N)=O)C(=O)O)NC(=O)[C@H](Cc2ccc(O)cc2)NC(=O)[C@H](CCCCN)NC(=O)[C@H](Cc2c[nH]c3ccccc23)NC(=O)[C@H](Cc2ccccc2)NC1=O [URP2] (H-VCFWKYCSQN-OH; disulfide 2-7),0.0302,,equipotent to activate the hUT,83,200–250%
